Legend:
[1] = test system: Plasma; assay: Plasma concentration in rat at 20 mg/kg, po; type: ADME, organism-based; set-up: dose 20 mg/kg, route oral; settings: in vivo
[2] = test system: Rattus norvegicus; assay: Volume of distribution at steady state in rat at 2 mg/kg, iv; type: ADME, organism-based; set-up: dose 2 mg/kg, route intravenous; settings: in vivo
[3] = Tmax in rat at 10 mg/kg, ip; type: ADME, organism-based; set-up: dose 10 mg/kg, route intraperitoneal; settings: in vivo
[4] = test system: Rattus norvegicus; assay: AUC (0 to t) in rat at 2 mg/kg, iv; type: ADME, organism-based, Plasma; set-up: dose 2 mg/kg, route intravenous; settings: in vivo
[5] = test system: Rattus norvegicus; assay: Cmax in rat at 2 mg/kg, iv; type: ADME, organism-based; set-up: dose 2 mg/kg, route intravenous; settings: in vivo
[6] = test system: Brain; assay: Drug uptake in rat brain at 20 mg/kg, po; type: ADME, organism-based; set-up: dose 20 mg/kg, route oral; settings: in vivo, read-out: Drug uptake
[7] = test system: Rattus norvegicus; assay: Tmax in rat at 20 mg/kg, po; type: ADME, organism-based; set-up: dose 20 mg/kg, route oral; settings: in vivo
[8] = test system: Rattus norvegicus; assay: Cmax in rat at 20 mg/kg, po; type: ADME, organism-based; set-up: dose 20 mg/kg, route oral; settings: in vivo
[9] = test system: Rattus norvegicus; assay: AUC (0 to t) in rat at 20 mg/kg, po; type: ADME, organism-based, Plasma; set-up: dose 20 mg/kg, route oral; settings: in vivo
[10] = test system: Nucleic Acid; assay: Ratio of drug uptake from brain to plasma in rat after 30 mins; type: ADME; settings: 0.5 h

Structure (SMILES) | concentration [1] [µM] | Vdss [2] [L/kg] | Tmax [3] [min] | AUCt [4] [µmol·min/L] | Cmax [5] [µM] | concentration [6] [µM] | Tmax [7] [min] | Cmax [8] [µM] | AUCt [9] [µmol·min/L] | BPR [10]
COc1cc(C(=O)O)ccc1OCCCCOc1ccc(C(=O)CC(C)C)c(O)c1C | 16.4 | 0.55 | 30 | 304.6 | 6.43 | 0.81 | 90 | 2.75 | 1274.6 | 
COc1ccc(C(=O)O)cc1OCCCCOc1ccc(C(=O)CC(C)(C)C)c(O)c1C |  |  | 30 |  |  |  |  |  |  | 
COc1cc(C(=O)O)ccc1OCCCCOc1ccc(C(=O)CC(C)(C)C)c(O)c1C |  |  | 30 |  |  |  |  |  |  | 0.02
Cc1c(OCCCCOc2ccc(C(=O)CC(C)(C)C)c(O)c2C)cccc1C(=O)O |  |  | 30 |  |  |  |  |  |  | 
CCCC(=O)c1ccc(OCCCCOc2cc(C(=O)O)ccc2OC)c(C)c1O |  |  | 30 |  |  |  |  |  |  | 
COc1ccc(C(=O)O)cc1OCCCCOc1ccc(C(=O)CC(C)C)c(O)c1C |  | 2.87 |  | 77.2 | 2.15 |  | 96 | 1.05 | 466.2 | 
Cc1c(OCCCCOc2ccc(C(=O)O)cc2)ccc(C(=O)CC(C)C)c1O | 5.29 | 0.81 |  | 231.7 | 5 | 1.12 | 135 | 2.57 | 544.8 | 

Now from value to compound:

concentration [1] [µM] | Vdss [2] [L/kg] | Tmax [3] [min] | AUCt [4] [µmol·min/L] | Cmax [5] [µM] | concentration [6] [µM] | Tmax [7] [min] | Cmax [8] [µM] | AUCt [9] [µmol·min/L] | BPR [10] | Structure (SMILES)
4.23 | 0.89 |  | 123.7 | 3.52 | 0.23 | 30 | 12.5 | 720.5 |  | Cc1c(OCCCCOc2ccc(F)c(C(=O)O)c2)ccc(C(=O)CC(C)C)c1O
 |  | 30 |  |  |  |  |  |  |  | Cc1c(OCCCCOc2ccc(F)c(C(=O)O)c2)ccc(C(=O)CC(C)(C)C)c1O
 |  | 30 |  |  |  |  |  |  |  | CCC(=O)c1ccc(OCCCCOc2ccc(F)c(C(=O)O)c2)c(C)c1O

Reference: ChEMBL document CHEMBL3286233, “Design and synthesis of systemically active metabotropic glutamate subtype-2 and -3 (mGlu2/3) receptor positive allosteric modulators (PAMs): pharmacological characterization and assessment in a rat model of cocaine dependence” (J Med Chem, 2014)
